The results in this text go back to patent US9505721B2, “Aromatic imide compound and method for producing same” (AZ ELECTRONIC MATERIALS (LUXEMBOURG) S.A.R.L., priority 2012, dated 2016).

Series [1] is described as follows: Evaluation test of acid generating ability (UV irradiation, BCG pH probe). The note with it: solution in dichloromethane with BCG, before irradiation. The class given is physicochemical. As for the experimental part:
It was measured and evaluated by devices and a method (Evaluation test of acid generating ability) described below whether compounds obtained in Examples above acted as an acid generator under photoirradiation. The actual evaluation was conducted by use of Compound 1H. Devices used in evaluation are as follows.
(§1) Measurement solvent: Dichloromethane
(1) […] Compound 1H solution in dichloromethane was prepared and a few drops of 50% bromocresolgreen (BCG) solution in ethanol were added in this solution as pH probe.
(2) The absorption spectrum of the solution was measured and it was checked that there are maximum absorption spectrums of Compound 1H in 300-400 nm and BOG in 630 nm. The color of this solution was dark blue.
(3) The absorption spectrum of the solution was measured every 2 minutes while irradiating the solution described (2) above by UV lamp. At this time, the progress of attenuation concerning absorption maximum of BCG spectrum and the discoloration situation of dark blue color in the solution due to the pH decline of the system by generation of acids were observed by eyes.

Series [2] is described as follows: Ultraviolet and visible absorption spectrum (absorbance at i-, h- and g-line). The class given is physicochemical. To be noted: measurement solvent dichloromethane. How it is done: [3] Ultraviolet and visible absorption spectrum Types of machines: Varian Cary4000 manufactured by Agilent Technologies, Inc.
as §1
Absorption spectrums of compounds obtained in Examples 1 to 5 were measured. Furthermore, N-trifluoromethanesulfonyloxy-1,8-naphthalimide was used as a comparative example.

For `O=C1c2cccc3c(C#Cc4ccccc4)ccc(c23)C(=O)N1OS(=O)(=O)C(F)(F)F` [Compound 1H, N-trifluoromethanesulfonyloxy-4-phenylethynyl-1,8-naphthalimide], the maximum absorption spectrum in series [1] is given as 300-400 nm. Further, in series [2], the “absorbance 365 nm (i-line)” value was 0.4162, the “absorbance 405 nm (h-line)” value is 0.5112 and the “absorbance 436 nm (g-line)” value was found to be 0.01499.
For the compound `O=C1c2cccc3cccc(c23)C(=O)N1OS(=O)(=O)C(F)(F)F` [Comparative example, N-trifluoromethanesulfonyloxy-1,8-naphthalimide, reference compound], in series [2], the “absorbance 365 nm (i-line)” value amounted to 0.02925, the “absorbance 405 nm (h-line)” value was 0.005575 and the “absorbance 436 nm (g-line)” value was 0.004642.
